Measurements published in publication PMC11204507, “Mechanistic Insights into the Neurotoxicity of 2,5-Dimethoxyphenethylamines (2C) and Corresponding N-(2-methoxybenzyl)phenethylamine (NBOMe) Drugs” (Journal of Xenobiotics, 2024).
Like-named read-outs stand apart in the source and are kept apart here.

Key:
MAO-A and MAO-B = settings: rat model; cited from earlier work
[1] = test system: differentiated SH-SY5Y cells; design: method as in PMID 37631071, PMID 25900438; settings: same in vitro model; cited from earlier work
TK6 cells = test system: TK6 cells; design: method as in PMID 33348640; settings: 1 h, cited from earlier work
[2] = test system: differentiated SH-SY5Y cells; settings: same experimental conditions; cited from earlier work
[3] = test system: differentiated SH-SY5Y cells; design: method as in PMID 37631071, PMID 25900438; settings: same in vitro model; cited from earlier work; remark: listed apart in the source
serotonergic B65 cells = test system: serotonergic B65 cells; design: method as in doi:10.1007/s11419-020-00527-w; settings: cited from earlier work
[4] = test system: dopaminergic CATH.a cells and 5-HT-containing B65 cells; design: method as in doi:10.1007/s11419-020-00527-w; settings: 24 h exposure; read-out: EC50, LDH assay; cited from earlier work
[5] = test system: differentiated SH-SY5Y cells; assay: Intracellular ROS/RNS levels, DCFH-DA probe; type: cell-based, human; settings: positive control, 24 h
Protocol: Reactive species play important roles in cell signaling and immune response. However, when their levels are excessive, they can cause oxidative stress and damage the cells. The intracellular reactive oxygen species (ROS) and reactive nitrogen species (RNS) levels were measured using the cell-permeable DCFH-DA probe. Inside the cells, DCFH-DA is cleaved by cellular esterases originating DCFH, which is oxidized by ROS/RNS, resulting in the fluorescent 2′,7′-dichlorofluorescein (DCF).
Therefore, the SH-SY5Y cells were seeded onto 96-well plates (25,000 cells/cm^2) following the previously described seeding and differentiation protocol. […] Tert-butyl hyoperoxide (t-BHP, 100 µM, 24 h) was used as a positive control.
At the end of the incubation period, the DCF fluorescence was measured at an excitation wavelength of 485 nm and an emission wavelength of […] in a multi-well plate reader (PowerWaveX, BioTek Instruments, Winooski, VT, USA). The detection of ROS/RNS was assessed by the percent of probe oxidation relative to the control cells (0 µM), and a minimum of 4 independent experiments were conducted in triplicate.

| SMILES | deamination by MAO-A and MAO-B (MAO-A and MAO-B) | ROS production [1] | increase in ROS levels (TK6 cells; 12.5 µM) | tGSH content [3] | EC50 [4] [µM] | also measured |
| --- | --- | --- | --- | --- | --- | --- |
| COc1cc(CCN)c(OC)cc1Br [2C-B] | both isoenzymes can catalyze the deamination | no ROS production | two-fold | significant decrease in the tGSH content | – | drug-induced cytotoxicity upon MAO inhibition [2]: significant increase in the drug-induced cytotoxicity was observed upon MAO inhibition |
| COc1cc(CCN)c(OC)cc1I [2C-I] | both isoenzymes can catalyze the deamination | – | – | – | – | increase in ROS levels (TK6 cells; 35 µM): two-fold; mitochondrial production of ROS (serotonergic B65 cells): increase in the mitochondrial production of ROS |
| COc1cc(CCNCc2ccccc2OC)c(OC)cc1Br [25B-NBOMe] | – | no ROS production | two-fold | significant decrease in the tGSH content | – | – |
| CNC(C)Cc1ccc2c(c1)OCO2 (stereo not drawn) [MDMA, 3,4-methylenedioxymethamphetamine] | – | – | – | – | 1500 to 3000 | – |
| CN[C@@H](C)Cc1ccccc1 [methamphetamine] | – | – | – | – | 1500 to 3000 | – |
| CC(C)(C)OO [t-BHP, tert-butyl hydroperoxide] | – | – | – | – | – | activity at 100 µM ([5]; Homo sapiens, SH-SY5Y, control 100.0%): 188%; increase of ROS levels ([5]; 100 µM): approximately 90% |
